Numbered stars: 1 amine (or outer) side, 2 acyl side, 3 side chain; on linkers, the order of the positions; unused ones are H or OH. Bridge positions count the residues as written; N and C are the ends. Peptide text beside a SMILES is read from it. I, II: the chains in the order shown. * marks the point of attachment. NH(CH2)11CH3 = CCCCCCCCCCCCN*; CH2CH2 = C(C[*:2])[*:1]
What was measured:
Format in all cases: cell-based
CHO-K1 cells [1] = assay: Transfection of luciferase plasmid into CHO-K1 cells with gemini compounds in combination with supplements (DOPE, PLUS)
Method: The transfection ability of the gemini compounds could be further enhanced by the addition of a neutral carrier, for example, dioleyl phosphatidylethanolamine (DOPE) (Farhood, H., et al (1985) Biochim. Biophys. Acta 1235 289) or a complexing reagent, for example, PLUS compound (Life Technologies Inc.). […] Transfection mediated by compound 55 with DOPE in a 2:1 ratio and the addition of 11.6 ul of PLUS compound lead to a mean count of 6.5×10^5 cps representing a 12-fold increase of luciferase activity in comparison to compound 55 alone. Incubation of the PLUS compound with the DNA and combination with compound 55 alone also lead to a 4-fold increase.

CHO-K1 cells [2] = assay: Transfection of luciferase plasmid into CHO-K1 cells, luciferase reporter gene assay; conditions: for Luciferase activity, mean count at most effective (peak) concentration: 5 ug luciferase plasmid, about 48 h post transfection; for Concentration of peak transfection efficiency (most effective concentration): luciferase plasmid
Method: CHO-K1 cells (ATCC: CRL-9618) were seeded into T25-culture flasks (Corning-Costar Buckinghamshire, UK), at 7×10^5 cells per flask, 24 hours prior to transfection. The CHO-K1 cells were seeded in 5 ml MEM alpha medium with ribonucleosides and deoxyribonucleosides and supplemented with 1× L-glutamine and 10% v/v foetal bovine serum (complete medium). The cells were grown at 37° C. in 5% CO2 in a humidified atmosphere.
For transfection, 5 ug DNA (luciferase control plasmid) was incubated with the gemini compounds in water (final volume 400 μl). The peptide-based gemini compounds were made up at 1 mg ml^−1 in tissue culture grade water and then diluted to the appropriate concentration to a total volume of 200 ul. Following a 30 minute room temperature incubation, 2.6 ml OPTI-MEM® medium was added and the solution placed on the cells. Following an overnight incubation at 37° C., the transfection solution was replaced with complete medium and the cells incubated at 37° C. 24 hours post transfection the cells were detached from the flask and seeded into 96-well plates at a density of 0.5×10^5 cells per well and incubated for a further 24 hours at 37° C. Luciferase reporter gene assays were performed according to the manufacturers instructions (Roche Diagnostics, Mannheim, Germany) approximately 48 hours post transfection. The plates were left for a 15 minutes adaption period in the dark before counting for 60 seconds in a TopCount NXT counter (Canberra Packard). An average of eight wells were counted per transfection.
Control transfections were set up with no DNA, an anionic gemini compound and the commercially available reagent LipofectAmine PLUS™.

HEK293 cells = assay: Transfection of luciferase plasmid into HEK293 cells, luciferase activity assay; conditions: for Efficiency in facilitating transfection of the luciferase plasmid: at concentrations above 150 ug/ml; for Luciferase activity, mean count at most effective (peak) concentration: luciferase control plasmid 6 ug, mean of 4 independent counts; for Concentration of peak transfection efficiency (most effective concentration): luciferase plasmid
Method: All tissue culture reagents were obtained from Life Technologies Inc. HEK 293 cells were seeded at 2-3×10^5 cells per well in Nunc six-well culture plates, 24 hours prior to transfection. The cells were seeded in 2 mls Dulbeccos Modified Eagle medium containing Earles salts and supplemented with 10% v/v foetal bovine serum (=complete medium). The cells were grown at 37° C. in 5% CO2 in a humidified atmosphere. 6 ug DNA (“luciferase control plasmid” from Promega Corp.) were dissolved in 100 ul serum free medium (OPTI-MEMO). The peptide-based gemini compounds were made up at 1 mg/ml in tissue culture grade water and then diluted in OPTI-MEM® to the appropriate concentration to a final volume of 100 ul. The DNA and gemini solutions were mixed (to a total volume of 200 ul; final concentrations of 5, 25, 50, 100, 150, 200, 250 and 300 ug/ml) and left at room temperature for 15 minutes. The DNA/gemini mix was placed onto the cells in each well and left in contact for 18-20 hours. The cells were then washed twice with phophate buffered saline prior to 1 ml of fresh complete medium being added. Cells were incubated for a further 24 hours prior to lysis and luciferase activity assayed.
All luciferase activity assays were performed using the Canberra Packard (Berkshire, UK) Luclite kit according to the manufacturer's instructions with the exception that the cells in each well were resuspended in 1 ml lysis buffer and 100 ul aliquots mixed with 100 ul of the luciferase substrate. The reaction mix was left for a 15 minutes adaptation period in the dark before counting for 5 minutes in a Top Count scintillation counter. Luciferase activity is measured as counts per second (CPS) from the scintillation counter. Four independent counts were taken per well.
Control transfections were set up with no DNA, CaPO4, an anionic gemini compound (1) and the commercially available lipofection reagents LipofectAmine™ and Lipotaxi™ at the manufacturers recommended concentrations (10, 25, 50, 75, 125 ug/ml and 175, 250, 325, 400 and 500 ug/ml respectively).

[3] = compound 55 with DOPE 2:1 plus 11.6 ul PLUS compound

CCCCCCCCCCCCCNC(=O)C(CO)NC(=O)C(CSCCSCC(NC(=O)C(N)CCCCNC(=O)C(N)CCCCN)C(=O)NC(CO)C(=O)NCCCCCCCCCCCC)NC(=O)C(N)CCCCNC(=O)C(N)CCCCN.Cl.Cl.Cl.Cl (centres unmarked) [Compound 55]
Increase of luciferase activity (CHO-K1 cells [1]; PLUS compound incubated with the DNA, combined with compound 55 alone (no DOPE)): 4 fold
Increase of luciferase activity (CHO-K1 cells [1]; compound 55 and DOPE at 2:1 ratio): 9 fold
Increase of luciferase activity in comparison to compound 55 alone (CHO-K1 cells [1]; [3]): 12 fold
Luciferase activity, mean count (CHO-K1 cells [1]; [3]): 6.5×10^5 cps
Efficiency in facilitating transfection of the luciferase plasmid (CHO-K1 cells [2]): very efficient agents
Luciferase activity, mean count at most effective (peak) concentration (CHO-K1 cells [2]): about 2.4×10^5 cps
Concentration of peak transfection efficiency (most effective concentration) (CHO-K1 cells [2]): 30 µM
Efficiency in facilitating transfection of the luciferase plasmid (HEK293 cells): very efficient agents
Luciferase activity, mean count at most effective (peak) concentration (HEK293 cells): about 45,000 cps
Concentration of peak transfection efficiency (most effective concentration) (HEK293 cells): 300 µg/mL

CCCCCCCCCCCCNC(=O)C(CO)NC(=O)C(CSCCSCC(NC(=O)C(CCCCNC(=O)C(N)CCCCN)NC(=O)C(N)CCCCN)C(=O)NC(CO)C(=O)NCCCCCCCCCCCC)NC(=O)C(CCCCNC(=O)C(N)CCCCN)NC(=O)C(N)CCCCN.Cl.Cl.Cl.Cl.Cl.Cl.Cl.Cl (centres unmarked) [Compound 56] (I: H-KK(Lys)CS-{NH(CH2)11CH3} / II: H-KK(Lys)CS-{NH(CH2)11CH3}; linker I:3-II:3 via CH2CH2; configuration not given here)
Efficiency in facilitating transfection of the luciferase plasmid (CHO-K1 cells [2]): very efficient agents
Luciferase activity, mean count at most effective (peak) concentration (CHO-K1 cells [2]): about 1.9×10^5 cps
Concentration of peak transfection efficiency (most effective concentration) (CHO-K1 cells [2]): 40 µM
Efficiency in facilitating transfection of the luciferase plasmid (HEK293 cells): very efficient agents
Luciferase activity, mean count at most effective (peak) concentration (HEK293 cells): about 50,000 cps
Concentration of peak transfection efficiency (most effective concentration) (HEK293 cells): 200 µg/mL

CaPO4 [reference compound]
Luciferase activity count, control transfection (HEK293 cells; CaPO4 transfection): about 2,000 cps
